# Laboratory results as given in PubChem BioAssay (NCI).
#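 Here, GI50 denotes the concentration required for 50% inhibition of growth. TGI: total growth inhibition.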
# Columns and labels:
# Experiment in all cases: NCI-60 cell line screen, 384-well format
# [1] = tested on: SK-OV-3 ovarian
# [2] = tested on: HCC-2998 colon
# [3] = tested on: LOX IMVI melanoma
# [4] = tested on: RPMI-8226 leukemia
# [5] = tested on: OVCAR-4 ovarian
# [6] = tested on: SW-620 colon
# [7] = tested on: NCI-H226 lung
# [8] = tested on: EKVX NSCLC
# [9] = tested on: CAKI-1 renal
# [10] = tested on: MALME-3M melanoma
# [11] = tested on: NCI-H23 lung
# [12] = tested on: 786-0 renal
# [13] = tested on: HOP-92 NSCLC
# [14] = tested on: SF-295 CNS
# [15] = tested on: SF-268 CNS
# [16] = tested on: ACHN renal
# [17] = tested on: M14 melanoma
# [18] = tested on: K-562 leukemia
# [19] = tested on: A498 renal
# [20] = tested on: MDA-MB-435 melanoma
# [21] = tested on: SK-MEL-2 melanoma
# [22] = tested on: NCI/ADR-RES ovarian
# [23] = tested on: OVCAR-5 ovarian
# [24] = tested on: BT-549 breast
# [25] = tested on: HOP-62 NSCLC
# [26] = tested on: DU-145 prostate
# [27] = tested on: NCI-H460 NSCLC
# [28] = tested on: SR leukemia
# [29] = tested on: TK-10 renal
# [30] = tested on: SN12C renal
# [31] = tested on: HL-60(TB) leukemia
# [32] = tested on: HCT-116 colon
# [33] = tested on: UACC-62 melanoma
# [34] = tested on: OVCAR-8 ovarian
# [35] = tested on: MDA-MB-468 breast
# [36] = tested on: SK-MEL-28 melanoma
# [37] = tested on: SNB-19 CNS
# [38] = tested on: RXF 393 renal
# [39] = tested on: HCT-15 colon
# [40] = tested on: U251 glioblastoma
# [41] = tested on: HT29 colon
# [42] = tested on: A549 NSCLC
# [43] = tested on: SK-MEL-5 melanoma
# [44] = tested on: COLO 205 colon
# [45] = tested on: NCI-H322M lung
# [46] = tested on: T-47D breast
# [47] = tested on: OVCAR-3 ovarian
# [48] = tested on: HS 578T breast
# [49] = tested on: SF-539 CNS
# [50] = tested on: CCRF-CEM leukemia
# [51] = tested on: UACC-257 melanoma
# [52] = tested on: MCF7 breast
# [53] = tested on: NCI-H522 lung
# [54] = tested on: MDA-MB-231 breast
# [55] = tested on: PC-3 prostate
# [56] = tested on: MOLT-4 leukemia
# [57] = tested on: SNB-75 CNS
# [58] = tested on: KM12 colon
# [59] = tested on: IGROV1 ovarian
compound,measurement,setting,value
C[C@@H]1CCN(C(=O)CC#N)C[C@@H]1N(C)c1ncnc2[nH]ccc12,GI50,[1],> 58 µM
same,TGI,[1],> 100 µM
same,GI50,[2],> 100 µM
same,TGI,[2],> 100 µM
same,GI50,[3],> 100 µM
same,TGI,[3],> 100 µM
same,GI50,[4],> 100 µM
same,TGI,[4],> 100 µM
same,GI50,[5],> 100 µM
same,TGI,[5],> 100 µM
same,GI50,[6],> 100 µM
same,TGI,[6],> 100 µM
same,GI50,[7],> 42.6 µM
same,TGI,[7],> 85.5 µM
same,GI50,[8],> 100 µM
same,TGI,[8],> 100 µM
same,GI50,[9],> 100 µM
same,TGI,[9],> 100 µM
same,GI50,[10],> 100 µM
same,TGI,[10],> 100 µM
same,GI50,[11],> 100 µM
same,TGI,[11],> 100 µM
same,GI50,[12],> 100 µM
same,TGI,[12],> 100 µM
same,GI50,[13],> 100 µM
same,TGI,[13],> 100 µM
same,GI50,[14],> 100 µM
same,TGI,[14],> 100 µM
same,GI50,[15],99.8 µM
same,TGI,[15],> 100 µM
same,GI50,[16],> 100 µM
same,TGI,[16],> 100 µM
same,GI50,[17],> 100 µM
same,TGI,[17],> 100 µM
same,GI50,[18],> 100 µM
same,TGI,[18],> 100 µM
same,GI50,[19],> 100 µM
same,TGI,[19],> 100 µM
same,GI50,[20],> 100 µM
same,TGI,[20],> 100 µM
same,GI50,[21],> 100 µM
same,TGI,[21],> 100 µM
same,GI50,[22],> 100 µM
same,TGI,[22],> 100 µM
same,GI50,[23],62 µM
same,TGI,[23],> 100 µM
same,GI50,[24],> 100 µM
same,TGI,[24],> 100 µM
same,GI50,[25],> 100 µM
same,TGI,[25],> 100 µM
same,GI50,[26],> 100 µM
same,TGI,[26],> 100 µM
same,GI50,[27],> 100 µM
same,TGI,[27],> 100 µM
same,GI50,[28],> 100 µM
same,TGI,[28],> 100 µM
same,GI50,[29],> 71.4 µM
same,TGI,[29],> 100 µM
same,GI50,[30],> 94 µM
same,TGI,[30],> 100 µM
same,GI50,[31],> 100 µM
same,TGI,[31],> 100 µM
same,GI50,[32],> 100 µM
same,TGI,[32],> 100 µM
same,GI50,[33],> 100 µM
same,TGI,[33],> 100 µM
same,GI50,[34],> 100 µM
same,TGI,[34],> 100 µM
same,GI50,[35],> 100 µM
same,TGI,[35],> 100 µM
same,GI50,[36],> 100 µM
same,TGI,[36],> 100 µM
same,GI50,[37],> 100 µM
same,TGI,[37],> 100 µM
same,GI50,[38],> 80.4 µM
same,TGI,[38],> 100 µM
same,GI50,[39],> 100 µM
same,TGI,[39],> 100 µM
same,GI50,[40],> 100 µM
same,TGI,[40],> 100 µM
same,GI50,[41],> 100 µM
same,TGI,[41],> 100 µM
same,GI50,[42],> 100 µM
same,TGI,[42],> 100 µM
same,GI50,[43],> 100 µM
same,TGI,[43],> 100 µM
same,GI50,[44],> 100 µM
same,TGI,[44],> 100 µM
same,GI50,[45],> 100 µM
same,TGI,[45],> 100 µM
same,GI50,[46],> 100 µM
same,TGI,[46],> 100 µM
same,GI50,[47],> 100 µM
same,TGI,[47],> 100 µM
same,GI50,[48],> 100 µM
same,TGI,[48],> 100 µM
same,GI50,[49],> 100 µM
same,TGI,[49],> 100 µM
same,GI50,[50],> 100 µM
same,TGI,[50],> 100 µM
same,GI50,[51],> 100 µM
same,TGI,[51],> 100 µM
same,GI50,[52],> 100 µM
same,TGI,[52],> 100 µM
same,GI50,[53],> 83.7 µM
same,TGI,[53],> 100 µM
same,GI50,[54],62.5 µM
same,TGI,[54],> 100 µM
same,GI50,[55],> 100 µM
same,TGI,[55],> 100 µM
same,GI50,[56],> 100 µM
same,TGI,[56],> 100 µM
same,GI50,[57],61.5 µM
same,TGI,[57],> 100 µM
same,GI50,[58],> 100 µM
same,TGI,[58],> 100 µM
same,GI50,[59],> 79.9 µM
same,TGI,[59],> 100 µM
